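These data come from cells grown in 96-well plates and exposed to compound for 48 hours at five concentrations. The concentration for full growth arrest is given as TGI.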
Experiments:
Experiment in all cases: DTP human tumour cell line panel, 48 h
786-0 renal = system: 786-0 renal
A498 renal = system: A498 renal
A549 NSCLC = system: A549 NSCLC
ACHN renal = system: ACHN renal
CAKI-1 renal = system: CAKI-1 renal
CCRF-CEM leukemia = system: CCRF-CEM leukemia
COLO 205 colon = system: COLO 205 colon
DU-145 prostate = system: DU-145 prostate
EKVX NSCLC = system: EKVX NSCLC
HCC-2998 colon = system: HCC-2998 colon
HCT-116 colon = system: HCT-116 colon
HCT-15 colon = system: HCT-15 colon
HL-60(TB) leukemia = system: HL-60(TB) leukemia
HOP-62 NSCLC = system: HOP-62 NSCLC
HS 578T breast = system: HS 578T breast
HT29 colon = system: HT29 colon
IGROV1 ovarian = system: IGROV1 ovarian
K-562 leukemia = system: K-562 leukemia
KM12 colon = system: KM12 colon
LOX IMVI melanoma = system: LOX IMVI melanoma
MALME-3M melanoma = system: MALME-3M melanoma
MCF7 breast = system: MCF7 breast
MDA-MB-231 breast = system: MDA-MB-231 breast
MDA-N = system: MDA-N
MOLT-4 leukemia = system: MOLT-4 leukemia
NCI-H23 lung = system: NCI-H23 lung
NCI-H460 lung = system: NCI-H460 lung
NCI/ADR-RES ovarian = system: NCI/ADR-RES ovarian
OVCAR-3 ovarian = system: OVCAR-3 ovarian
OVCAR-4 ovarian = system: OVCAR-4 ovarian
OVCAR-5 ovarian = system: OVCAR-5 ovarian
OVCAR-8 ovarian = system: OVCAR-8 ovarian
PC-3 prostate = system: PC-3 prostate
RPMI-8226 leukemia = system: RPMI-8226 leukemia
SF-268 CNS = system: SF-268 CNS
SF-295 CNS = system: SF-295 CNS
SF-539 CNS = system: SF-539 CNS
SK-MEL-2 melanoma = system: SK-MEL-2 melanoma
SK-MEL-28 melanoma = system: SK-MEL-28 melanoma
SK-MEL-5 melanoma = system: SK-MEL-5 melanoma
SK-OV-3 ovarian = system: SK-OV-3 ovarian
SN12C renal = system: SN12C renal
SNB-19 CNS = system: SNB-19 CNS
SNB-75 CNS = system: SNB-75 CNS
SR leukemia = system: SR leukemia
SW-620 colon = system: SW-620 colon
T-47D breast = system: T-47D breast
TK-10 renal = system: TK-10 renal
U251 CNS = system: U251 CNS
UACC-257 melanoma = system: UACC-257 melanoma
UO-31 renal = system: UO-31 renal
BT-549 breast = system: BT-549 breast
HOP-92 NSCLC = system: HOP-92 NSCLC
M14 melanoma = system: M14 melanoma
MDA-MB-435 = system: MDA-MB-435
NCI-H226 lung = system: NCI-H226 lung
NCI-H522 lung = system: NCI-H522 lung
RXF 393 renal = system: RXF 393 renal
UACC-62 melanoma = system: UACC-62 melanoma

Structure (SMILES): CC1CN=C(N(C(=O)Nc2ccccc2)C2CCCCC2)S1 (configuration not stated)
- TGI (786-0 renal): 31.4 µM
- TGI (A498 renal): 34.7 µM
- TGI (A549 NSCLC): 34.2 µM
- TGI (ACHN renal): 26.3 µM
- TGI (CAKI-1 renal): 31.2 µM
- TGI (CCRF-CEM leukemia): 53.7 µM
- TGI (COLO 205 colon): 37 µM
- TGI (DU-145 prostate): 69.7 µM
- TGI (EKVX NSCLC): 35.4 µM
- TGI (HCC-2998 colon): 34.6 µM
- TGI (HCT-116 colon): 33.1 µM
- TGI (HCT-15 colon): 28.9 µM
- TGI (HL-60(TB) leukemia): 35.6 µM
- TGI (HOP-62 NSCLC): > 100 µM
- TGI (HS 578T breast): 50 µM
- TGI (HT29 colon): 32.9 µM
- TGI (IGROV1 ovarian): 35.6 µM
- TGI (K-562 leukemia): 73.2 µM
- TGI (KM12 colon): 36.3 µM
- TGI (LOX IMVI melanoma): 27.1 µM
- TGI (MALME-3M melanoma): 32 µM
- TGI (MCF7 breast): 31.8 µM
- TGI (MDA-MB-231 breast): 29.9 µM
- TGI (MDA-N): 30.1 µM
- TGI (MOLT-4 leukemia): 38.8 µM
- TGI (NCI-H23 lung): 33.8 µM
- TGI (NCI-H460 lung): 33.9 µM
- TGI (NCI/ADR-RES ovarian): 33.3 µM
- TGI (OVCAR-3 ovarian): 31.8 µM
- TGI (OVCAR-4 ovarian): 30.2 µM
- TGI (OVCAR-5 ovarian): 28.9 µM
- TGI (OVCAR-8 ovarian): 75 µM
- TGI (PC-3 prostate): 31.3 µM
- TGI (RPMI-8226 leukemia): 49.7 µM
- TGI (SF-268 CNS): 46 µM
- TGI (SF-295 CNS): 31.8 µM
- TGI (SF-539 CNS): 43.2 µM
- TGI (SK-MEL-2 melanoma): 29.5 µM
- TGI (SK-MEL-28 melanoma): 28.2 µM
- TGI (SK-MEL-5 melanoma): 28.4 µM
- TGI (SK-OV-3 ovarian): > 100 µM
- TGI (SN12C renal): 31.2 µM
- TGI (SNB-19 CNS): 81.8 µM
- TGI (SNB-75 CNS): 28.9 µM
- TGI (SR leukemia): 35.1 µM
- TGI (SW-620 colon): 28.5 µM
- TGI (T-47D breast): 92.7 µM
- TGI (TK-10 renal): 37 µM
- TGI (U251 CNS): 30.8 µM
- TGI (UACC-257 melanoma): 30.2 µM
- TGI (UO-31 renal): 32.3 µM

Structure (SMILES): Cc1cccc2c1C(=O)/C(=C/c1ccccc1C(=O)O)C2
- TGI (786-0 renal): > 100 µM
- TGI (A498 renal): > 100 µM
- TGI (A549 NSCLC): > 100 µM
- TGI (ACHN renal): > 100 µM
- TGI (BT-549 breast): > 100 µM
- TGI (CAKI-1 renal): > 100 µM
- TGI (CCRF-CEM leukemia): > 100 µM
- TGI (COLO 205 colon): > 100 µM
- TGI (DU-145 prostate): > 100 µM
- TGI (EKVX NSCLC): > 100 µM
- TGI (HCC-2998 colon): > 100 µM
- TGI (HCT-116 colon): > 100 µM
- TGI (HCT-15 colon): > 100 µM
- TGI (HL-60(TB) leukemia): > 100 µM
- TGI (HOP-62 NSCLC): > 100 µM
- TGI (HOP-92 NSCLC): > 100 µM
- TGI (HS 578T breast): > 100 µM
- TGI (HT29 colon): > 100 µM
- TGI (IGROV1 ovarian): > 100 µM
- TGI (K-562 leukemia): > 100 µM
- TGI (KM12 colon): > 100 µM
- TGI (LOX IMVI melanoma): > 100 µM
- TGI (M14 melanoma): > 100 µM
- TGI (MALME-3M melanoma): > 100 µM
- TGI (MCF7 breast): > 100 µM
- TGI (MDA-MB-435): > 100 µM
- TGI (MDA-N): > 100 µM
- TGI (MOLT-4 leukemia): > 100 µM
- TGI (NCI-H226 lung): > 100 µM
- TGI (NCI-H23 lung): > 100 µM
- TGI (NCI-H460 lung): > 100 µM
- TGI (NCI-H522 lung): > 100 µM
- TGI (NCI/ADR-RES ovarian): > 100 µM
- TGI (OVCAR-3 ovarian): > 100 µM
- TGI (OVCAR-4 ovarian): > 100 µM
- TGI (OVCAR-5 ovarian): > 100 µM
- TGI (OVCAR-8 ovarian): > 100 µM
- TGI (PC-3 prostate): > 100 µM
- TGI (RPMI-8226 leukemia): > 100 µM
- TGI (RXF 393 renal): > 100 µM
- TGI (SF-268 CNS): > 100 µM
- TGI (SF-295 CNS): > 100 µM
- TGI (SF-539 CNS): > 100 µM
- TGI (SK-MEL-2 melanoma): > 100 µM
- TGI (SK-MEL-28 melanoma): > 100 µM
- TGI (SK-MEL-5 melanoma): > 100 µM
- TGI (SN12C renal): > 100 µM
- TGI (SNB-19 CNS): > 100 µM
- TGI (SNB-75 CNS): > 100 µM
- TGI (SW-620 colon): > 100 µM
- TGI (T-47D breast): > 100 µM
- TGI (TK-10 renal): > 100 µM
- TGI (U251 CNS): > 100 µM
- TGI (UACC-257 melanoma): > 100 µM
- TGI (UACC-62 melanoma): > 100 µM
- TGI (UO-31 renal): > 100 µM

From PubChem BioAssay (NCI)
